These results are taken from patent publication US7655808B2, “Leptomycin compounds” (priority 2004, dated 2010).

Molecules are shown by their SMILES.

Data set [1] is described as follows: Mouse maximum tolerated dose, single dose intravenous. It counts as in vivo. The following applies: mice, single dose intravenous administration. The procedure:
The maximum tolerated dose (MTD) in mice, upon single dose intravenous administration was determined for a representative selection of compounds. The data are summarized in Table 4, with comparative data for LMB included.

The test system of the next data set is LNCaP. As to the kind of experiment: Inhibition of proliferation / cytotoxicity, LNCaP. It counts as cell-based. The note with it: Homo sapiens; LNCaP prostate cancer cell line; read-out: Tumor Cell Line (IC50, nM) LNCaP. The protocol: (§1) The biological activity of compounds of this invention was evaluated by measuring their inhibitory effect on the proliferation of various tumor cell lines. MCF-7, A549, and SKOV-3 are human breast, lung, and ovary cancer cell lines, respectively. NCI/ADR is a multi-drug resistant breast cancer cell line. CCRF-CEM and CCRF-CEM/PTX are human leukemia cell lines, the latter being a paclitaxel-resistant subline. LNCaP is a prostate cancer cell line.

A further data set concerns CCRF-CEM/PTX. Kind of data set: Inhibition of proliferation / cytotoxicity, CCRF-CEM/PTX. It is filed as cell-based. The note with it: CCRF-CEM/PTX paclitaxel-resistant human leukemia subline; read-out: Tumor Cell Line (IC50, nM) CCRF-CEM/PTX. The protocol: as §1
The next data set concerns A549. As to the kind of experiment: Inhibition of proliferation / cytotoxicity, A549. It is filed as cell-based. The following applies: A549 human lung cancer cell line; read-out: Tumor Cell Line (IC50, nM) A549. The protocol:
as §1

The next data set concerns CCRF-CEM. Kind of data set: Inhibition of proliferation / cytotoxicity, CCRF-CEM. It is filed as cell-based. The following applies: CCRF-CEM human leukemia cell line; read-out: Tumor Cell Line (IC50, nM) CCRF-CEM. The procedure: as §1
A further data set deals with mammalian cells. The note with it: Hamamoto et al., J. Antibiotics 1983; cited from earlier work.
In a further data set the test system is T24. As to the kind of experiment: Cytotoxicity against human bladder cancer cells T24. It counts as cell-based. The following applies: T-24. The procedure:
(§2) Additionally, the cytotoxicity of LMB was determined against two lines of human bladder cancer cells (UMUC-3 and T24).

A further data set has as its system MB 49 cells. Kind of data set: Cytotoxicity against MB 49 murine bladder cancer cells. It counts as cell-based. The following applies: Mus musculus, MB49. From the text:
Table 5 presents data on the cytotoxicity of LMB and selected compounds of this invention against MB 49 cells, a line of murine bladder cancer cells.

A further data set has as its system MCF-7. Kind of data set: Inhibition of proliferation / cytotoxicity, MCF-7. It is filed as cell-based. The following applies: MCF7; MCF-7 human breast cancer cell line; read-out: Tumor Cell Line (IC50, nM) MCF-7. The protocol: as §1
The next data set relates to NCI/ADR. As to the kind of experiment: Inhibition of proliferation / cytotoxicity, NCI/ADR. It counts as cell-based. The note with it: Homo sapiens, NCI/ADR-RES; NCI/ADR multi-drug resistant breast cancer cell line; read-out: Tumor Cell Line (IC50, nM) NCI/ADR. The protocol:
as §1

The test system of the next data set is SKOV-3. As to the kind of experiment: Inhibition of proliferation / cytotoxicity, SKOV-3. It is filed as cell-based. The following applies: SK-OV-3; SKOV-3 human ovary cancer cell line; read-out: Tumor Cell Line (IC50, nM) SKOV-3. The procedure: as §1
Another data set relates to UMUC-3. Kind of data set: Cytotoxicity against human bladder cancer cells UMUC-3. It is filed as cell-based. The note with it: UMUC3; UMUC-3 human bladder cancer cells. The protocol: as §2
The next data set relates to K562 cells. Kind of data set: Cytotoxicity against Bcr-Abl positive K562 cells. It counts as cell-based. The note with it: Homo sapiens; K562, Bcr-Abl positive CML cell line. From the text:
Data was also obtained for the cytotoxicity of several compounds of this invention against K562, a Bcr-Abl positive CML cell line, as shown in Table 3 with comparative data for LMB included.

For data set [2] the following is noted: phase 1 trial halted in 1994; cited from earlier work.

One may read the EC50 as the concentration needed to bring the measured effect to its halfway point. Low values mean an effect from little substance, high ones a need for much substance. Regarding `CCC(=C/[C@H](C)C/C=C/C(C)=C/[C@@H](C)C(=O)[C@@H](C)[C@H](O)[C@@H](C)C/C(C)=C/C(=O)O)/C=C/[C@@H]1OC(=O)C=C[C@@H]1C` [LMB, Leptomycin B, reference compound], in data set [1], the “Mouse MTD” value was 2.5 mg/kg. For the same compound, the IC50 in the data set on LNCaP was determined as 0.3 nM; with CCRF-CEM/PTX it was 0.41 nM; in the data set with A549, 0.3 nM; with CCRF-CEM, 0.65 nM; with MB 49 cells it was 1.8 nM; with MCF-7, 0.29 nM. The IC50 in the data set on NCI/ADR was 1 nM; in the data set with SKOV-3 it was 1.5 nM; in the data set on K562 cells, 0.6 nM. For the same compound, in the data set with mammalian cells, the “cytotoxicity towards mammalian cells” value is listed as “remarkable cytotoxicity”. The EC50 is 1.2 nM with T24 and 0.33 nM in the data set on UMUC-3. For the same compound, the “toxicity in phase 1 trial” value in data set [2] is reported as “extreme toxicity”.
